Results reported in patent US20100297020A1, “PHOSPHORYLATED AND PHOSPHONATED PYRONE ANALOGS FOR THERAPEUTIC TREATMENT” (Limerick Biopharma, Inc., priority 2008, published 2010).
Like-named read-outs stand apart in the source and are kept apart here.

Assays:
Protein Tyrosine Kinase, = assay: Secondary toxicity screen: Protein Tyrosine Kinase (name not given); format: biochemical
[1] = target: Protein Tyrosine Kinase, ZA70 (ZAP-70) (Homo sapiens, UniProt P43403); assay: Secondary toxicity screen: ZAP-70; format: biochemical
Chain of Protein Tyrosine Kinase, ZA70 (ZAP-70) (P43403 whole entry, species assumed): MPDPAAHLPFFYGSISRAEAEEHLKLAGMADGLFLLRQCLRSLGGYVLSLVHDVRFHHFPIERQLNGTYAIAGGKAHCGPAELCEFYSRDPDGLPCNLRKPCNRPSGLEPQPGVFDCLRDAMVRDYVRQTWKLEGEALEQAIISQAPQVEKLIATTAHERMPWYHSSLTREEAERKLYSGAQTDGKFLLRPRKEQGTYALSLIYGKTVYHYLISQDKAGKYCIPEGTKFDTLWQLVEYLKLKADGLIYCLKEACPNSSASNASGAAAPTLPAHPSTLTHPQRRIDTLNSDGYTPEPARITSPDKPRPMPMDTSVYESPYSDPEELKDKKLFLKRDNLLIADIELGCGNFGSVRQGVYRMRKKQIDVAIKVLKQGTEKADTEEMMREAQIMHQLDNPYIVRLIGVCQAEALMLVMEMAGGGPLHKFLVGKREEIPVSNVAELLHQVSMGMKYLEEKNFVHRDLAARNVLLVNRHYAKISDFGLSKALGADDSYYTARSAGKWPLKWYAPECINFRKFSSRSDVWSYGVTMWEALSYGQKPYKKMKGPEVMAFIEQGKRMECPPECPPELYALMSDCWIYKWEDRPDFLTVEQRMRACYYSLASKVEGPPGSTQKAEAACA

[2] = target: UDP Glucuronosyltransferase, UGT1A1 (Homo sapiens, UniProt P22309)
Chain of UDP Glucuronosyltransferase, UGT1A1 (P22309 26-533): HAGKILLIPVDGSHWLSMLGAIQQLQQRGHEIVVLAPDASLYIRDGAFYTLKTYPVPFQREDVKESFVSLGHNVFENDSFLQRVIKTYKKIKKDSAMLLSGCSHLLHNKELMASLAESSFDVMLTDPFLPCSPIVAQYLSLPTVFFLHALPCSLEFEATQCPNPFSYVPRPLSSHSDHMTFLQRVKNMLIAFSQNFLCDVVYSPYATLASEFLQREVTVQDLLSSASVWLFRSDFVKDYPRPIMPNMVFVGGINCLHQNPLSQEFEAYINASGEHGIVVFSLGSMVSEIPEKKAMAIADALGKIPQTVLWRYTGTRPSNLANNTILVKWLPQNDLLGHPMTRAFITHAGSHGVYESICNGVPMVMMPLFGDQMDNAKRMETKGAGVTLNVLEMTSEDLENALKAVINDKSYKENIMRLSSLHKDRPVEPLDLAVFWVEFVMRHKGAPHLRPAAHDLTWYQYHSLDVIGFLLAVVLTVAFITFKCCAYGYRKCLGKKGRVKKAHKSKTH

AdenosineA1 [3] = target: T1, AdenosineA1 (Homo sapiens, UniProt P30542); assay: AdenosineA1 GTPγS functional assay; format: biochemical
T1 sequence (P30542 1-326): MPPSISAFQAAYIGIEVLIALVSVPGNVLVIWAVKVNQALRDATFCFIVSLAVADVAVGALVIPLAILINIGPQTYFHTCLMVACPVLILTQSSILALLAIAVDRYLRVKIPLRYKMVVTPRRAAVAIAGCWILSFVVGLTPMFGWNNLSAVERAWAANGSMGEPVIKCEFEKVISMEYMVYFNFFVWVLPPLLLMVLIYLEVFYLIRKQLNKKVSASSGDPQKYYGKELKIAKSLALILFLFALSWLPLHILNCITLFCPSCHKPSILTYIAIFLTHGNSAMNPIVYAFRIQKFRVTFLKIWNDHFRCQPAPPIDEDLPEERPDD
Description: (§1) The compound is additionally tested in AdenosineA1, AdrenergicA2A, DopamineD25, Histamine H1-, and μ-Opiate GTPγS functional assays using a concentration of 10 μM.
(§2) The compound may be additionally tested in AdenosineA1, AdrenergicA2A, DopamineD25, Histamine H1-, and μ-Opiate GTPγS functional assays using a concentration of 10 μM.
(§3) The compound can be additionally tested in AdenosineA1, AdrenergicA2A, DopamineD25, Histamine H1-, and μ-Opiate GTPγS functional assays using a concentration of 10 μM.

[4] = test system: ATPase, Na+/K+, Heart, Pig; assay: Secondary toxicity screen (MDS Pharma Services): ATPase, Na+/K+; format: biochemical
[5] = test system: Transporter, Monoamine rabbit; assay: Secondary toxicity screen: Transporter, Monoamine; format: binding
[6] = target: Protein Tyrosine Kinase, Insulin Receptor (Homo sapiens, UniProt P06213); assay: Secondary toxicity screen: Insulin Receptor kinase; format: biochemical
Chain of Protein Tyrosine Kinase, Insulin Receptor (P06213 28-1382): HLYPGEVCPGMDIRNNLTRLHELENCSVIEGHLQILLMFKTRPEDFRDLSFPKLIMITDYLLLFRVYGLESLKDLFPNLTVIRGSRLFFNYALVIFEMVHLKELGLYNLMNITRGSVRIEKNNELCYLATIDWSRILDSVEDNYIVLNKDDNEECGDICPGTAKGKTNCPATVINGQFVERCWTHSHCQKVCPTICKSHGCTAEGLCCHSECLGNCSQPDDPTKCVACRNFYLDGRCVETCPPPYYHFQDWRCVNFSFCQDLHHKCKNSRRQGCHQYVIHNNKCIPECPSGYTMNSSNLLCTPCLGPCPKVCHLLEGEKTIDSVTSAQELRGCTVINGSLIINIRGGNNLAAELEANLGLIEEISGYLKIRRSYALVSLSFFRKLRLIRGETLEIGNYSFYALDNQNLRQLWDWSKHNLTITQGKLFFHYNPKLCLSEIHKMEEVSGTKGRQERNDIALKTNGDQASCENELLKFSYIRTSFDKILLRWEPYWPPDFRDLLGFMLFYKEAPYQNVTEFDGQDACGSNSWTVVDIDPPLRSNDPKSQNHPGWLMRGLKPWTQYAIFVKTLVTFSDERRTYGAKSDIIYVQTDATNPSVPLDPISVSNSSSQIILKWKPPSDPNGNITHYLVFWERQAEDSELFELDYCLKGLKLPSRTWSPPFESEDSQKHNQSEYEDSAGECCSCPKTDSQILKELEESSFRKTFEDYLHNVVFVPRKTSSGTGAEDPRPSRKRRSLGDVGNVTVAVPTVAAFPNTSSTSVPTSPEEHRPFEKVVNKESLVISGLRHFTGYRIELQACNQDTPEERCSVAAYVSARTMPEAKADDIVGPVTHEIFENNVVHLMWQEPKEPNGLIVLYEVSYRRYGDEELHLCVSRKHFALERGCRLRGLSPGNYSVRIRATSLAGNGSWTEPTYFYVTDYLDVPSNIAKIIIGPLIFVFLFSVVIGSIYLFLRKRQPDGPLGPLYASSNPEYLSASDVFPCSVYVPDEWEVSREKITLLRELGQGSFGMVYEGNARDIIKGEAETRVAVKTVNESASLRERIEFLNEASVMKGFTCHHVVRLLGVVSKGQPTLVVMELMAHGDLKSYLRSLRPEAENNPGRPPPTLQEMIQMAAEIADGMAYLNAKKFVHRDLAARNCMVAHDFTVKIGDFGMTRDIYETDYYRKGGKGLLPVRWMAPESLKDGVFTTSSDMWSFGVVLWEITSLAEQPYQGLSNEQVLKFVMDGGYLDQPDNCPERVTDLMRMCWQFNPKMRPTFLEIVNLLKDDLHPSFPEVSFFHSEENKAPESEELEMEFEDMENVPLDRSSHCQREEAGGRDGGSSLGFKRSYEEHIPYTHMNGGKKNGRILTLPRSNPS

[7] = target: Protein Tyrosine Kinase, FGFR1 (Homo sapiens, UniProt P11362); assay: Secondary toxicity screen: FGFR1; format: biochemical
Chain of Protein Tyrosine Kinase, FGFR1 (P11362 22-822): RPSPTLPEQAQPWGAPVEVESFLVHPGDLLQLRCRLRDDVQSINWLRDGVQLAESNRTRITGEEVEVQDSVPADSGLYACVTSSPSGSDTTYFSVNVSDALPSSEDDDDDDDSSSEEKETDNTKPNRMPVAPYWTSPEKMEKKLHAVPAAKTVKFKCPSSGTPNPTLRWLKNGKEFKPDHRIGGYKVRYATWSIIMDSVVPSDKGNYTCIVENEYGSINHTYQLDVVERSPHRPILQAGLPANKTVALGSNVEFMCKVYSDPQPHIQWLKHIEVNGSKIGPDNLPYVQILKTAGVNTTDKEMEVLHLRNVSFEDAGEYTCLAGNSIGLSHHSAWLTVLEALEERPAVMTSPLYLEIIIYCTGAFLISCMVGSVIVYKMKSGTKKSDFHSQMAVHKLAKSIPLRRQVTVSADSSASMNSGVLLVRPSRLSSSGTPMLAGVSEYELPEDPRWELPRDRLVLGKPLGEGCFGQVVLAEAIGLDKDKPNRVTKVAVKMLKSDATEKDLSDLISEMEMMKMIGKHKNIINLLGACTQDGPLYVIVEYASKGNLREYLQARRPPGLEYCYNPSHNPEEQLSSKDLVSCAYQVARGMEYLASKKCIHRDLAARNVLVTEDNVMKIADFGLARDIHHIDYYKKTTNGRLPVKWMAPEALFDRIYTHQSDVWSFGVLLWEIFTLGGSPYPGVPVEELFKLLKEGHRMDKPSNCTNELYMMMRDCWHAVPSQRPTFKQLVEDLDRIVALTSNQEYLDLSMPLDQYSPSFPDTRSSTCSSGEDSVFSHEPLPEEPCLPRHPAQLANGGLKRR

Dopamine D47 = assay: Secondary toxicity screen: Dopamine D47; format: binding
AdrenergicA2A = target: T2, AdrenergicA2A (Homo sapiens, UniProt P08913); assay: AdrenergicA2A GTPγS functional assay; format: biochemical
T2 sequence (P08913 1-465): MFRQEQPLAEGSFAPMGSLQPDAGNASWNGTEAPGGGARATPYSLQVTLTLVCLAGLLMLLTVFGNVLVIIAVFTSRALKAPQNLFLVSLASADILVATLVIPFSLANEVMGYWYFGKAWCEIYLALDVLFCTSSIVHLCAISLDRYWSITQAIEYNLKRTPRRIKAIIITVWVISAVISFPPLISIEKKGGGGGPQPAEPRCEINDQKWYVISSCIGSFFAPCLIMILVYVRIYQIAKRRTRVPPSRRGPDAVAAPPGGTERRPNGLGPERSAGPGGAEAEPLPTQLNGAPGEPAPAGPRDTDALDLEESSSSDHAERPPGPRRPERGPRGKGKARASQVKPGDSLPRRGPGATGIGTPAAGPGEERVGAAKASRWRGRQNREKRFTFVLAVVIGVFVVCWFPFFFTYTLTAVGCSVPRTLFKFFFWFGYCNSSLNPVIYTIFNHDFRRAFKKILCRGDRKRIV
Description: as §1, §2, §3

[8] = target: Nitric Oxide Synthase, Endothelial (eNOS) (Homo sapiens, UniProt P29474); assay: Secondary toxicity screen: eNOS; format: biochemical
[9] = target: Peripheral Benzodiazepine Receptor (PBR) (Homo sapiens, UniProt P30536); assay: Secondary toxicity screen: Peripheral Benzodiazepine Receptor; format: binding
Chain of Peripheral Benzodiazepine Receptor (PBR) (P30536 whole entry, species assumed): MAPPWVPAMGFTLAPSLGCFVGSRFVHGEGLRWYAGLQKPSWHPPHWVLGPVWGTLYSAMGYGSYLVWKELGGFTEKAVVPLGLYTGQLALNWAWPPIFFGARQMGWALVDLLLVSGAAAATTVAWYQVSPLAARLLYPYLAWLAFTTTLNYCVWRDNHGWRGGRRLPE

[10] = target: Serotonin (5-Hydroxytryptamine) 5-HT1A (Homo sapiens, UniProt P08908); assay: Secondary toxicity screen: 5-HT1A; format: binding
Chain of Serotonin (5-Hydroxytryptamine) 5-HT1A (P08908 whole entry): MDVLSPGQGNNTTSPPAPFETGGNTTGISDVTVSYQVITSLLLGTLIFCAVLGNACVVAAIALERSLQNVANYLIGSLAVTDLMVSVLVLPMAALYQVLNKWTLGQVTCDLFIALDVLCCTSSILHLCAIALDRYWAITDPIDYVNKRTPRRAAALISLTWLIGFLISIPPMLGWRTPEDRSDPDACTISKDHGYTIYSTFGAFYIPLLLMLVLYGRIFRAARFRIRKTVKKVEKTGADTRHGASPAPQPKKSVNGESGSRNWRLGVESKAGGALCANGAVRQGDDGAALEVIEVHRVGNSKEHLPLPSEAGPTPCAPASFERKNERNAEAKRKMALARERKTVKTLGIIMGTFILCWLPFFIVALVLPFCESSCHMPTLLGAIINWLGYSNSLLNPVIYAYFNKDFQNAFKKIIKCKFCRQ

AdenosineA1 [11] = target: T1, AdenosineA1; assay: Secondary toxicity screen: Adenosine A1; format: binding
Adrenergic α2A = Adrenergic α2A (Homo sapiens, UniProt P08913); assay: Secondary toxicity screen: Adrenergic α2A; format: binding
[12] = target: Protein Tyrosine Kinase, FGFR2 (Homo sapiens, UniProt P21802); assay: Secondary toxicity screen: FGFR2; format: biochemical
Chain of Protein Tyrosine Kinase, FGFR2 (P21802 22-821): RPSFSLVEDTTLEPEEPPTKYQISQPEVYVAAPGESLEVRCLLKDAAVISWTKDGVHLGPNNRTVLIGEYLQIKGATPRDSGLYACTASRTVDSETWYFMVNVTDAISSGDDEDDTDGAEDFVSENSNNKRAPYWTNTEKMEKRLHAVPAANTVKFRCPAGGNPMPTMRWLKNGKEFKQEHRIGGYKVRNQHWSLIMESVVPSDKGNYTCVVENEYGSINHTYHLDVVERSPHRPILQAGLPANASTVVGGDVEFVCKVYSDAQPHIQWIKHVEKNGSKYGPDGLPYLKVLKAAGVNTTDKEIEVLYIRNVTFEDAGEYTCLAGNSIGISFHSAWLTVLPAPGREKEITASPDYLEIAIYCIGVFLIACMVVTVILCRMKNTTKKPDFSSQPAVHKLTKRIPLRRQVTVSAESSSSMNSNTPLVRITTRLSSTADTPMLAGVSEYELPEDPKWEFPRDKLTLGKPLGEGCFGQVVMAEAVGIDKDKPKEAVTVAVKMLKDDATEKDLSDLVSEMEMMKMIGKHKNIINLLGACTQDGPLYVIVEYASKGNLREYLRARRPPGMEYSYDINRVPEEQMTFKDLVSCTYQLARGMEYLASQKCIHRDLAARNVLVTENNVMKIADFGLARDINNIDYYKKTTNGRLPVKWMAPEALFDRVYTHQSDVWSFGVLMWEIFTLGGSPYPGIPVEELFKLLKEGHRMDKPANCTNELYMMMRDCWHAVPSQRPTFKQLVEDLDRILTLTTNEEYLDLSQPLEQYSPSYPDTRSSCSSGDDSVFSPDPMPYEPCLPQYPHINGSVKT

[13] = pH 8
Description: Quercetin-3′-O-phosphate is dissolved in water at about pH 8.
Fisetin-3′-O-phosphate is dissolved in water at about pH 8.
Quercetin-3′-O-methylphosphonate (Compound 2) is dissolved in water at about pH 8.

[14] = target: UGT1A1 (UDP glucuronosyltransferase) (Homo sapiens, UniProt P22309); assay: in vitro
Chain of UGT1A1 (UDP glucuronosyltransferase) (P22309 26-533): as the sequence (P22309 26-533) above

[15] = 10 uM, read-out: percent inhibition at 10 μM

## O=c1c(O)c(-c2ccc(O)c(OP(=O)(O)O)c2)oc2cc(O)ccc12 [fisetin-3′-O-phosphate, Fisetin-3′-O-phosphate]
Protein Tyrosine Kinase,
  percent inhibition at 10 μM: 82%
[1]
  percent inhibition at 10 μM: 74%
[2]
  percent inhibition at 10 μM: 52%
AdenosineA1 [3]
  antagonist activity in the AdenosineA1 assay: 48%
[4]
  percent inhibition at 10 μM: 65%
[5]
  percent inhibition at 10 μM: 68%
[6]
  percent inhibition at 10 μM: 91%
[7]
  percent inhibition at 10 μM: 96%
Dopamine D47
  percent inhibition at 10 μM: 51%
AdrenergicA2A
  inhibition in the AdrenergicA2A assay: marked negative inhibition
[8]
  percent inhibition at 10 μM: 72%
[9]
  percent inhibition at 10 μM: 53%
[10]
  percent inhibition at 10 μM: 62%
AdenosineA1 [11]
  percent inhibition at 10 μM: 50%
Adrenergic α2A
  percent inhibition at 10 μM: 57%
[12]
  percent inhibition at 10 μM: 94%
[13]
  degradation seen by NMR and HPLC: no degradation

## O=c1c(O)c(-c2ccc(O)c(OP(=O)(O)O)c2)oc2cc(O)cc(O)c12 [quercetin-3′-O-phosphate]
Protein Tyrosine Kinase,; 10 uM
  percent inhibition at 10 μM: 82%
[1]; [15]
  inhibition at 10 µM: 74%
AdenosineA1 [3]; 10 μM
  antagonist activity in the AdenosineA1 assay: 48%
[4]; 10 uM
  percent inhibition at 10 μM: 65%
[5]; 10 uM
  percent inhibition at 10 μM: 68%
[6]; [15]
  inhibition at 10 µM: 91%
[7]; [15]
  inhibition at 10 µM: 96%
Dopamine D47; 10 uM
  percent inhibition at 10 μM: 51%
AdrenergicA2A; 10 μM
  inhibition in the AdrenergicA2A assay: marked negative inhibition
[8]; [15]
  inhibition at 10 µM: 72%
[9]; [15]
  inhibition at 10 µM: 53%
[14]
  inhibition at 10 µM: 52%
[10]; [15]
  inhibition at 10 µM: 62%
AdenosineA1 [11]; [15]
  inhibition at 10 µM: 50%
Adrenergic α2A; [15]
  inhibition at 10 µM: 57%
[12]; [15]
  inhibition at 10 µM: 94%
[13]
  degradation seen by NMR and HPLC: no degradation
